pIC50: −log10 of the molar value.
Assays:
[1] = target: WDR5 protein (22-334aa) with MLL1 polypeptide (3672-3773aa) (Homo sapiens, UniProt P61964); experiment: WDR5-MLL PPI inhibitory activity test (HTRF); format: binding; details: His-tagged WDR5 and biotin-tagged MLL1 polypeptide
From the text: Test Example 1: WDR5-MLL PPI Inhibitory Activity Test
Effect of the compounds on WDR5 (WD Repeat Domain 5) and MLL1 (mixed-lineage leukemia 1) peptides at molecular level.
The effect of the compound on the interaction of WDR5 protein (22-334aa) with MLL1 polypeptide (3672-3773aa) was detected by HTRF (Homogeneous Time-Resolved Fluorescence) technology. When the N-terminal His-tagged WDR5 recognized by the Anti-6His-Eu cryptate donor interacts with the biotin-tagged MLL1 polypeptide recognized by the streptavidin-APC receptor, the donor and acceptor are pulled close enough to produce fluorescence resonance energy transfer (FRET). […] Therefore, the decrease in FRET signal can reflect the compound's inhibition on the interaction of WDR5 with MLL1 polypeptide.
The compound to be tested was diluted 3-fold with DMSO. […] Then the compound was diluted with reaction buffer (25 mM HEPES pH=7.5, 100 mM NaCl, 0.05% Tween 20) to control the final concentration of DMSO at 0.5%. In a 384-well plate, 1 μL of compound and 3 μL of 42 nM WDR5 protein were added, centrifuged at 1000 rpm for 1 min, incubated at room temperature for 60 min, followed by adding 3 μL of 333 nM MLL1 polypeptide with incubation at room temperature for 10 min, and followed by adding 3 μL of a mixed liquid of Anti-6His-Eu cryptate and streptavidin-APC with centrifugation at 1000 rpm for 1 mi and incubation at room temperature protected from light for 60 min, using a multifunction microplate reader (EnVision®2105) to read the signal. The following controls were set up per plate: control group (1 μL with 5% DMSO reaction buffer, 3 μL of 42 nM WDR5, 3 μL of MLL1 polypeptide, 3 μL of Anti-6His-Eu cryptate and streptavidin-APC). Blank group (1 μL reaction buffer with 5% DMSO, 3 μL reaction buffer, 3 μL MLL1 polypeptide, 3 μL Anti-6His-Eu cryptate and streptavidin-APC). The test data was calculated according to the signal ratio of two beams of fluorescence at different wavelengths: (665 nm signal/620 nm signal)*10000. […] The IC50 value was calculated using XLfit software.

MV4-11 cells = experiment: MV4-11 cell proliferation inhibition experiment (CellTiter-Glo); format: cell-based; details: Homo sapiens, 144 h, 6 days, read-out: cell proliferation inhibitory activity
Experimental: Test Example 2: MV4-11 Cell (ATCC: CRL-9591) Proliferation Inhibition Experiment
ATP in living cells was quantitatively detected by CellTiter-Glo (Promega-G7573) Luminescence Cell Viability Assay Kit to determine the effect of the compounds to be tested on cell proliferation. • Step 1: MV4-11 cells were seeded in 96-well plates (Greiner-655098) at a density of 1,500 cells per well with a volume of 140 μL per well; Cell culture medium components included RPM11640 (Gibco-A10491-01)+10% FBS (Gibco-10099-141C)+1% Penicillin-Streptomycin (5,000 U/mL, Gibco-15070-063). • Step 2: On the day of cell seeding, the cells were treated with the compound to be tested. The compound to be tested was diluted with a 3-fold gradient, and a total of 9 concentration gradients were set. DMSO (Sigma, D2650) with 0.5% final concentration or a DMSO solution containing the compound to be tested was added per well with 2 or 3 replicate wells at each concentration point. The plates were incubated at 37° C. in a 5% CO2 incubator (Thermo Scientific Steri-Cycle 371) for 6 days. • Step 3: The cell viability in the control and treatment groups was detected with CellTiter-Glo Luminescent Cell Viability Assay Kit. 50 μL of CellTiter-Glo was added per well, mixed well, and incubated for 15 min at room temperature protected from light. According to the kit instructions, the chemiluminescence signal was read using a multifunctional microplate reader (EnVision, PerkinElmer).
The inhibition percentage (%) of the compound at each concentration point was calculated by the following formula:
Inhibition Percentage (%)=(1−signal value of the group treated with the compound/signal value of the group treated with DMSO)*100.
The value of cell proliferation semi-inhibitory concentration IC50 was calculated using GraphPad Prism software, and the results are shown in Table 2.

Row | SMILES | pIC50 [1] | pIC50 (MV4-11 cells)
1 | CCOc1cc([C@H](C)N2CC3(CC3)c3c(CN4CC(F)(F)C4)cc(Cn4ccnc4NC)cc3C2=O)ncc1F [Compound 68, (S)-5′-((3,3-difluoroazetidinyl-1-yl)methyl)-2′-(1-(4-ethoxy-5-fluoropyridine-2-yl)ethyl)-7′-((2-(methylamino)-1H-imidazol-1-yl)methyl)-2′,3′-dihydro-1′H-spiro[cyclopropan-1,4′-isoquinoline]-1′-one] | > 7.70 | 6.70 to 7.30
2 | CCOc1cc([C@H](C)N2CC3(CC3)c3c(CN4C5CC4CN(C)C5)cc(Cn4ccnc4NC)cc3C2=O)ncc1F [Compound 70, 2′-((S)-1-(4-ethoxy-5-fluoropyridine-2-yl)ethyl)-5′-((3-methyl-3,6-diazadicyclo[3.1.1]heptan-6-yl)methyl)-7′-((2-(methylamino)-1H-imidazol-1-yl)methyl)-2′,3′-dihydro-1′H-spiro[cyclopropan-1,4′-isoquinoline]-1′-one] | > 7.70 | > 7.30
3 | CCOc1cc([C@H](C)N2CC3(CCC3)c3c(CN4CCN(S(C)(=O)=O)CC4)cc(Cn4ccnc4NC)cc3C2=O)ncc1F [Compound 78, (S)-2′-(1-(4-ethoxy-5-fluoropyridine-2-yl)ethyl)-7′-((2-(methylamino)-1H-imidazol-1-yl)methyl)-5′-((4-(methylsulfonyl)piperazin-1-yl)methyl)-2′,3′-dihydro-1′H-spiro[cyclobutan-1,4′-isoquinoline]-1′-one] | > 7.70 | > 7.30
4 | CCOc1cc([C@H](C)N2CC3(CCC3)c3c(CN4CCN(S(C)(=O)=O)CC4)cc(Cn4ccnc4NC)cc3C2=O)ncc1C#N [Compound 80, (S)-4-ethoxy-6-(1-(7′-((2-(methylamino)-1H-imidazol-1-yl)methyl)-5′-((4-(methylsulfonyl)piperazin-1-yl)methyl)-1′-one-1′H-spiro[cyclobutan-1,4′-isoquinoline]-2′(3′H)-yl)ethyl)nicotinonitrile] | > 7.70 | > 7.30
5 | CCOc1cc([C@H](C)N2CC3(CCC3)c3c(CN4CCN(C)CC4)cc(Cn4ccnc4NC)cc3C2=O)ncc1F [Compound 83, (S)-2′-(1-(4-ethoxy-5-fluoropyridine-2-yl)ethyl)-7′-((2-(methylamino)-1H-imidazol-1-yl)methyl)-5′-((4-methylpiperazin-1-yl)methyl)-2′,3′-dihydro-1′H-spiro[cyclobutan-1,4′-isoquinoline]-1′-one] | > 7.70 | > 7.30
6 | CCOc1cc([C@H](C)N2CC3(CCC3)c3c(CN4CC[C@@H](O)C4)cc(Cn4ccnc4NC)cc3C2=O)ncc1F [Compound 84, 2′-((S)-1-(4-ethoxy-5-fluoropyridine-2-yl)ethyl)-5′-(((R)-3hydroxylpyrrolidin-1-yl)methyl)-7′-((2-(methylamino)-1H-imidazol-1-yl)methyl)-2′,3′-dihydro-1′H-spiro[cyclobutyl-1,4′-isoquinoline]-1′-one] | > 7.70 | > 7.30
7 | CCOc1cc([C@H](C)N2CC3(CCC3)c3c(CN4CC[C@H](O)C4)cc(Cn4ccnc4NC)cc3C2=O)ncc1F [Compound 85, 2′-((S)-1-(4-ethoxy-5-fluoropyridine-2-yl)ethyl)-5′-(((S)-3-hydroxylpyrrolidin-1-yl)methyl)-7′-((2-(methylamino)-1H-imidazol-1-yl)methyl)-2′,3′-dihydro-1′H-spiro[cyclobutan-1,4′-isoquinoline]-1′-one] | > 7.70 | > 7.30
8 | CCOc1cc(CN2CC3(CCC3)c3c(CN4CCN(C)CC4)cc(Cn4ccnc4NC)cc3C2=O)nn1C [Compound 87, 2′-((5-ethoxy-1-methyl-1H-pyrazole-3-yl)methyl)-7′-((2-(methylamino)-1H-imidazol-1-yl)methyl)-5′-((4-methylpiperazin-1-yl)methyl)-2′,3′-dihydro-1′H-spiro[cyclobutan-1,4′-isoquinoline]-1′-one] | > 7.70 | > 7.30
9 | CCOc1cc([C@H](C)N2CC3(CC(F)(F)C3)c3c(CN(C)C)cc(Cn4ccnc4NC)cc3C2=O)ncc1F [Compound 98] | > 7.70 | 6.70 to 7.30

The next lines start with the values.

Row | pIC50 [1] | pIC50 (MV4-11 cells) | SMILES
10 | > 7.70 | > 7.30 | CCOc1cc([C@H](C)N2CC3(CC3)c3c(CN4CC(F)(F)C4)cc(Cn4ccnc4NC)cc3C2=O)ncc1C#N [Compound 67, (S)-6-(1-(5′-((3,3-difluoroazetidinyl-1-yl)methyl)-7′-((2-(methylamino)-1H-imidazol-1-yl)methyl)-1′-one-1′H-spiro[cyclopropan-1,4′-isoquinoline]-2′(3′H)-yl)ethyl)-4-ethoxynicotinonitrile]
11 | > 7.70 | > 7.30 | CCOc1cc(CN2CC3(CC3)c3c(CN(C)C)cc(Cn4ccnc4NC)cc3C2=O)ncc1C#N [Compound 71, 6-((5′-((dimethylamino)methyl)-7′-((2-(methylamino)-1H-imidazol-1-yl)methyl)-1′-one-1′H-spiro[cyclopropan-1,4′-isoquinoline]-2′(3′H)-yl)methyl)-4-ethoxynicotinonitrile]
12 | > 7.70 | > 7.30 | CCOc1cc([C@H](C)N2CC3(CCC3)c3c(CN4CCOCC4)cc(Cn4ccnc4NC)cc3C2=O)ncc1C#N [Compound 72, (S)-4-ethoxy-6-(1-(7′-((2-(methylamino)-1H-imidazol-1-yl)methyl)-5′-(morpholinylmethyl)-1′-one-1′H-spiro[cyclobutyl-1,4′-isoquinoline]-2′(3′H)-yl)ethyl)nicotinonitrile]
13 | > 7.70 | > 7.30 | CCOc1cc([C@H](C)N2CC3(CCC3)c3c(CN4CCN(C)CC4)cc(Cn4ccnc4NC)cc3C2=O)ncc1C#N [Compound 73, (S)-4-ethoxy-6-(1-(7′-((2-(methylamino)-1H-imidazol-1-yl)methyl)-5′-((4-methylpiperazin-1-yl)methyl)-1′-one-1′H-spiro[cyclobutan-1,4′-isoquinoline]-2′(3′H)-yl)ethyl)nicotinonitrile]
14 | > 7.70 | > 7.30 | CCOc1cc(CN2CC3(CCC3)c3c(CN(C)C)cc(Cn4ccnc4NC)cc3C2=O)ncc1C#N [Compound 77, 6-((5′-((dimethylamino)methyl)-7′-((2-(methylamino)-1H-imidazol-1-yl)methyl)-1′-one-1′H-spiro[cyclobutan-1,4′-isoquinoline]-2′(3′H)-yl)methyl)-4-ethoxynicotinonitrile]
15 | > 7.70 | > 7.30 | CCOc1cc([C@H](C)N2CC3(CCC3)c3c(CN4CC(F)(F)C4)cc(Cn4ccnc4NC)cc3C2=O)ncc1C#N [Compound 79, (S)-6-(1-(5′-((3,3-difluoroazetidinyl-1-yl)methyl)-7′-((2-(methylamino)-1H-imidazol-1-yl)methyl)-1′-one-1′H-spiro[cyclobutan-1,4′-isoquinoline]-2′(3′H)-yl)ethyl)-4-ethoxynicotinonitrile]
16 | > 7.70 | > 7.30 | CCOc1cc([C@H](C)N2CC3(CCC3)c3c(CN4CCC(OC)CC4)cc(Cn4ccnc4NC)cc3C2=O)ncc1C#N [Compound 81]
17 | > 7.70 | > 7.30 | CCOc1cc(CN2CC3(CCC3)c3c(CN4CC(F)(F)C4)cc(Cn4ccnc4NC)cc3C2=O)ncc1C#N [Compound 82, 6-((5′-((3,3-difluoroazetidinyl-1-yl)methyl)-7′-((2-(methylamino)-1H-imidazol-1-yl)methyl)-1′-one-1′H-spiro[cyclobutan-1,4′-isoquinoline]-2′(3′H)-yl)methyl)-4-ethoxynicotinonitrile]
